# Data reported in patent publication US8802597B2, “Herbicidal pyrimidines” (E I du Pont de Nemours and Company, priority 2003, dated 2014).
# Assays:
# Assay in all cases: Test E flooded paddy water application
# Format in all cases: in vivo
# Details in all cases: Flood, 21 days, scale 0 to 100 (0 no effect, 100 complete control)
# [1] = tested on: barnyardgrass (Echinochloa crus-galli)
# In short: (§1)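 Response scored visually on a 0–100 scale (100 = complete control) at 21 days against untreated pots. Treatment was into paddy water 3 cm deep over silt loam, with plants at the 2.0–2.5-leaf stage, grown under 16-h light at 29.5/26.7 °C day/night.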
# [2] = tested on: bearded (brdd.) sprangletop (Leptochloa fusca ssp. fascicularis)
# In short: as §1
# [3] = tested on: ducksalad (Heteranthera limosa)
# In short: as §1
# [4] = tested on: early watergrass (Echinochloa oryzoides)
# In short: as §1
# [5] = tested on: junglerice (Echinochloa colona)
# In short: as §1
# [6] = tested on: late watergrass (Echinochloa oryzicola)
# In short: as §1
# [7] = tested on: smallflower umbrella sedge (Cyperus difformis)
# In short: as §1
# [8] = tested on: transplanted rice seedlings (Oryza sativa cv. ‘Japonica-M202’)
# In short: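 Greenhouse pots of Tama silt loam with weeds and rice at 2.0–2.5-leaf stage, flooded to 3 cm; compounds applied directly into paddy water, depth maintained. Visual rating versus untreated controls after 21 days, 0 (no effect) to 100 (complete control); 29.5/26.7 °C, 16-h photoperiod.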
# [9] = tested on: water seeded rice seedlings (Oryza sativa cv. ‘Japonica-M202’)
# In short: as §1
# [10] = tested on: rice flatsedge (Cyperus iria)
# In short: as §1
structure (smiles),measurement,setting,value
COC(=O)c1nc(-c2ccc(C(F)(F)F)cc2)nc(N)c1Cl [Compound 44],Barnyardgrass plant response rating,[1]; 32 g ai/ha,0
same,Barnyardgrass plant response rating,[1]; 64 g ai/ha,0
same,Barnyardgrass plant response rating,[1]; 125 g ai/ha,0
same,Barnyardgrass plant response rating,[1]; 250 g ai/ha,0
same,Barnyardgrass plant response rating,[1]; 500 g ai/ha,10
same,"Sprangletop, Brdd. plant response rating",[2]; 32 g ai/ha,20
same,"Sprangletop, Brdd. plant response rating",[2]; 64 g ai/ha,30
same,"Sprangletop, Brdd. plant response rating",[2]; 125 g ai/ha,30
same,"Sprangletop, Brdd. plant response rating",[2]; 250 g ai/ha,50
same,"Sprangletop, Brdd. plant response rating",[2]; 500 g ai/ha,95
same,Ducksalad plant response rating,[3]; 32 g ai/ha,100
same,Ducksalad plant response rating,[3]; 64 g ai/ha,100
same,Ducksalad plant response rating,[3]; 125 g ai/ha,100
same,Ducksalad plant response rating,[3]; 250 g ai/ha,100
same,Ducksalad plant response rating,[3]; 500 g ai/ha,100
same,"Watergrass, Early plant response rating",[4]; 32 g ai/ha,0
same,"Watergrass, Early plant response rating",[4]; 64 g ai/ha,0
same,"Watergrass, Early plant response rating",[4]; 125 g ai/ha,0
same,"Watergrass, Early plant response rating",[4]; 250 g ai/ha,0
same,"Watergrass, Early plant response rating",[4]; 500 g ai/ha,0
same,Junglerice plant response rating,[5]; 32 g ai/ha,0
same,Junglerice plant response rating,[5]; 64 g ai/ha,0
same,Junglerice plant response rating,[5]; 125 g ai/ha,0
same,Junglerice plant response rating,[5]; 250 g ai/ha,20
same,Junglerice plant response rating,[5]; 500 g ai/ha,20
same,"Watergrass, Late plant response rating",[6]; 32 g ai/ha,0
same,"Watergrass, Late plant response rating",[6]; 64 g ai/ha,0
same,"Watergrass, Late plant response rating",[6]; 125 g ai/ha,0
same,"Watergrass, Late plant response rating",[6]; 250 g ai/ha,0
same,"Watergrass, Late plant response rating",[6]; 500 g ai/ha,20
same,"Sedge, Umbrella plant response rating",[7]; 32 g ai/ha,20
same,"Sedge, Umbrella plant response rating",[7]; 64 g ai/ha,90
same,"Sedge, Umbrella plant response rating",[7]; 125 g ai/ha,90
same,"Sedge, Umbrella plant response rating",[7]; 250 g ai/ha,100
same,"Sedge, Umbrella plant response rating",[7]; 500 g ai/ha,100
same,"Rice, Transplanted plant response rating",[8]; 32 g ai/ha,0
same,"Rice, Transplanted plant response rating",[8]; 64 g ai/ha,0
same,"Rice, Transplanted plant response rating",[8]; 125 g ai/ha,0
same,"Rice, Transplanted plant response rating",[8]; 250 g ai/ha,0
same,"Rice, Transplanted plant response rating",[8]; 500 g ai/ha,0
same,"Rice, Water Seeded plant response rating",[9]; 32 g ai/ha,0
same,"Rice, Water Seeded plant response rating",[9]; 64 g ai/ha,0
same,"Rice, Water Seeded plant response rating",[9]; 125 g ai/ha,0
same,"Rice, Water Seeded plant response rating",[9]; 250 g ai/ha,0
same,"Rice, Water Seeded plant response rating",[9]; 500 g ai/ha,20
"CCOC(=O)c1nc(-c2ccc(Cl)cc2)nc(N)c1Cl [Compound 64, ethyl 6-amino-5-chloro-2-(4-chlorophenyl)-4-pyrimidinecarboxylate]","Sprangletop, Brdd. plant response rating",[2]; 32 g ai/ha,0
same,"Sprangletop, Brdd. plant response rating",[2]; 64 g ai/ha,0
same,"Sprangletop, Brdd. plant response rating",[2]; 125 g ai/ha,0
same,"Sprangletop, Brdd. plant response rating",[2]; 250 g ai/ha,0
same,"Plant response rating, Sprangletop, Brdd.",[2]; 16 g ai/ha,0
same,Ducksalad plant response rating,[3]; 32 g ai/ha,100
same,Ducksalad plant response rating,[3]; 64 g ai/ha,100
same,Ducksalad plant response rating,[3]; 125 g ai/ha,100
same,Ducksalad plant response rating,[3]; 250 g ai/ha,100
same,"Plant response rating, Ducksalad",[3]; 16 g ai/ha,100
same,"Watergrass, Early plant response rating",[4]; 32 g ai/ha,0
same,"Watergrass, Early plant response rating",[4]; 64 g ai/ha,0
same,"Watergrass, Early plant response rating",[4]; 125 g ai/ha,0
same,"Watergrass, Early plant response rating",[4]; 250 g ai/ha,0
same,"Plant response rating, Watergrass, Early",[4]; 16 g ai/ha,0
same,Junglerice plant response rating,[5]; 32 g ai/ha,0
same,Junglerice plant response rating,[5]; 64 g ai/ha,0
same,Junglerice plant response rating,[5]; 125 g ai/ha,0
same,Junglerice plant response rating,[5]; 250 g ai/ha,0
same,"Plant response rating, Junglerice",[5]; 16 g ai/ha,0
same,"Watergrass, Late plant response rating",[6]; 32 g ai/ha,0
same,"Watergrass, Late plant response rating",[6]; 64 g ai/ha,0
same,"Watergrass, Late plant response rating",[6]; 125 g ai/ha,20
same,"Watergrass, Late plant response rating",[6]; 250 g ai/ha,20
same,"Plant response rating, Watergrass, Late",[6]; 16 g ai/ha,0
same,"Flatsedge, Rice plant response rating",[10]; 32 g ai/ha,85
same,"Flatsedge, Rice plant response rating",[10]; 64 g ai/ha,90
same,"Flatsedge, Rice plant response rating",[10]; 125 g ai/ha,100
same,"Flatsedge, Rice plant response rating",[10]; 250 g ai/ha,100
same,"Plant response rating, Flatsedge, Rice",[10]; 16 g ai/ha,75
same,"Sedge, Umbrella plant response rating",[7]; 32 g ai/ha,80
same,"Sedge, Umbrella plant response rating",[7]; 64 g ai/ha,85
same,"Sedge, Umbrella plant response rating",[7]; 125 g ai/ha,100
same,"Sedge, Umbrella plant response rating",[7]; 250 g ai/ha,100
same,"Plant response rating, Sedge, Umbrella",[7]; 16 g ai/ha,65
same,"Rice, Transplanted plant response rating",[8]; 32 g ai/ha,0
same,"Rice, Transplanted plant response rating",[8]; 64 g ai/ha,0
same,"Rice, Transplanted plant response rating",[8]; 125 g ai/ha,10
same,"Rice, Transplanted plant response rating",[8]; 250 g ai/ha,10
same,"Plant response rating, Rice, Transplanted",[8]; 16 g ai/ha,0
same,"Rice, Water Seeded plant response rating",[9]; 32 g ai/ha,0
same,"Rice, Water Seeded plant response rating",[9]; 64 g ai/ha,0
same,"Rice, Water Seeded plant response rating",[9]; 125 g ai/ha,0
same,"Rice, Water Seeded plant response rating",[9]; 250 g ai/ha,0
same,"Plant response rating, Rice, Water Seeded",[9]; 16 g ai/ha,0
